Measured values taken from patent publication US9624195B2, “Isoquinoline compounds” (Gilead Sciences, Inc., priority 2014, dated 2017).
Where two headings read alike, the source gives them in different places.

Assays:
Type in all cases: cell-based
[1] = system: HIV-1 reverse transcriptase mutant Y181C; experiment: High throughput cytopathic effect assay in MT-4 cells, HIV-1 RT mutant Y181C; conditions: for EC50: Human immunodeficiency virus 1, MT4, read-out: MT4 EC50 (nM) against Y181C; for FC against mutant Y181C: fold change of EC50, Y181C versus w.t. assay 2
Excerpt: (§1) Compounds were screened in a miniaturized, high throughput cytopathic effect assay for activity against HIV-1 HBX2 (wild type) and HIV-1 reverse transcriptase mutants K103N and Y181C. In Tables 1 and 2 below, “w.t.” refers to results of the tested compounds run with the wildtype 1 and “w.t. assay 2” refers results of the tested compounds run with the wildtype on the same day as the testing of the compounds with the mutants. Thus, “w.t. assay 2” was run under the same conditions as the testing of the compounds with the mutants and provides a direct comparison with the results from the testing with the mutants.
(§2) Ten-point serial dilutions of compounds with half-log step size were generated in DMSO. AZT (5 μM) was used as the positive control and DMSO as the negative control. The Echo acoustic dispenser was used to deliver 200 nL of serially diluted compound into sterile 384 well tissue culture assay plates. Two million MT-4 cells were incubated with each of the 3 viruses at MOI of 0.0005 in separate 1 mL infection tubes for 1 hour at 37° C. The cells were diluted in cell culture medium (RPMI+10% FBS) to 50,000 cells/mL. The infected cells were added to 384 well assay plates containing serially dilute compounds. Assay plates were incubated for 5 days in a humidified incubator set at 37° C. and 5% CO2. To measure the cytopathic effect of HIV, 40 μL Cell TiterGlo was added to each well and the resulting luminescence signal is read with the Envision plate reader (Perkin Elmer). Data were normalized to positive and negative controls in each plate and expressed as % CPE Protection. EC50 values were defined as the compound concentration that caused a 50% […] in luminescence signal, and were calculated by non-linear regression using Pipeline Pilot software by applying a four parameter fit equation (Accelrys, San Diego, Calif.).
(§3) The high-throughput screening was also run for nevirapine (“NPV”), rilpivirine (“RPV”), and efavirenz (“EFV”). Nevirapine was obtained from Toronto Research Chemicals, Inc. (Toronto, Canada; Catalogue #N391275). Rilpivirine was obtained from Key Organics Ltd. (Camelford, Cornwall, United Kingdom; Catalogue #KE-0036). Efavirenz was obtained from Toronto Research Chemicals, Inc. (Toronto, Canada; Catalogue #E425000). Further details and background can be found in Janssen et al, J. Med. Chem, 2005, 48, 1901-1909; Das et al., Proc. Nat. Acad. Sci., 2008, vol., 105, no. 5, 1466-1471; and Kuroda et al., Nature Chemistry, 2013, DOI: 10.1038/NCHEM.1559.

[2] = system: HIV-1 reverse transcriptase mutant K103N; experiment: High throughput cytopathic effect assay in MT-4 cells, HIV-1 RT mutant K103N; conditions: for EC50: Human immunodeficiency virus 1, MT4, read-out: MT4 EC50 (nM) against K103N; for FC against mutant K103N: fold change of EC50, K103N versus w.t. assay 2
Excerpt: as §1, §2, §3

HIV-1 HBX2 (wild type) = experiment: High throughput cytopathic effect assay in MT-4 cells, HIV-1 wild type
Excerpt: as §1, §2, §3

hERG channels = target: T1, hERG channels (Homo sapiens, UniProt Q12809); experiment: hERG assay, whole cell recordings in CHO cells stably expressing hERG channels; conditions: tail current, whole cell patch clamp
T1 construct: host or cells: CHO cells stably expressing hERG
Protocol: AVIVA's CHO cell line, which stably expresses hERG channels, was used for the study. Cells were cultured in DMEM/F12 containing 10% FBS, 1% penicillin/streptomycin and 500 μg/ml G418. Before testing, cells were harvested using Accumax (Innovative Cell Technologies).
For electrophysiological recordings, the following solutions were used:
External Solution: 2 mM CaCl2; 2 mM MgCl2; 4 mM KCl; 150 mM NaCl; 10 mM Glucose; 10 mM HEPES; 305-315 mOsm; pH 7.4 (adjusted with 5M NaOH.)
Internal Solution: 140 mM KCl; 10 mM MgCl2; 6 mM EGTA; 5 mM HEPES-Na; 5 mM ATP-Mg; 295-305 mOsm; pH 7.25 (adjusted with 1M KOH).
Whole cell recordings were performed using PX 7000A (Axon Instruments) with AVIVA's SealChip™ technology. Cells were voltage clamped at a holding potential of −80 mV. The hERG current was then activated by a depolarizing step to −50 mV for 300 ms. This first step at −50 mV was used as a baseline for measuring peak amplitude of the tail current. Next, a voltage step to +20 mV was applied for 5 s to activate the channels. Finally, a step back to −50 mV for 5 s removed activation and the deactivating tail current was recorded.
All test articles were prepared from 10 mM DMSO stock solutions. […]
After achieving whole cell configuration, cells were monitored for 90 s to assess stability and then washed with External Solution for 66 s. […]

[3] = Human immunodeficiency virus 1, MT4, 120 h, MT-4 cells, HIV-1 wild type, 5 days, CPE protection (Cell TiterGlo), read-out: MT4 EC50 (nM) against w.t.
[4] = Human immunodeficiency virus 1, MT4, read-out: MT4 EC50 (nM) against w.t. assay 2

T1 sequence (Q12809 whole entry): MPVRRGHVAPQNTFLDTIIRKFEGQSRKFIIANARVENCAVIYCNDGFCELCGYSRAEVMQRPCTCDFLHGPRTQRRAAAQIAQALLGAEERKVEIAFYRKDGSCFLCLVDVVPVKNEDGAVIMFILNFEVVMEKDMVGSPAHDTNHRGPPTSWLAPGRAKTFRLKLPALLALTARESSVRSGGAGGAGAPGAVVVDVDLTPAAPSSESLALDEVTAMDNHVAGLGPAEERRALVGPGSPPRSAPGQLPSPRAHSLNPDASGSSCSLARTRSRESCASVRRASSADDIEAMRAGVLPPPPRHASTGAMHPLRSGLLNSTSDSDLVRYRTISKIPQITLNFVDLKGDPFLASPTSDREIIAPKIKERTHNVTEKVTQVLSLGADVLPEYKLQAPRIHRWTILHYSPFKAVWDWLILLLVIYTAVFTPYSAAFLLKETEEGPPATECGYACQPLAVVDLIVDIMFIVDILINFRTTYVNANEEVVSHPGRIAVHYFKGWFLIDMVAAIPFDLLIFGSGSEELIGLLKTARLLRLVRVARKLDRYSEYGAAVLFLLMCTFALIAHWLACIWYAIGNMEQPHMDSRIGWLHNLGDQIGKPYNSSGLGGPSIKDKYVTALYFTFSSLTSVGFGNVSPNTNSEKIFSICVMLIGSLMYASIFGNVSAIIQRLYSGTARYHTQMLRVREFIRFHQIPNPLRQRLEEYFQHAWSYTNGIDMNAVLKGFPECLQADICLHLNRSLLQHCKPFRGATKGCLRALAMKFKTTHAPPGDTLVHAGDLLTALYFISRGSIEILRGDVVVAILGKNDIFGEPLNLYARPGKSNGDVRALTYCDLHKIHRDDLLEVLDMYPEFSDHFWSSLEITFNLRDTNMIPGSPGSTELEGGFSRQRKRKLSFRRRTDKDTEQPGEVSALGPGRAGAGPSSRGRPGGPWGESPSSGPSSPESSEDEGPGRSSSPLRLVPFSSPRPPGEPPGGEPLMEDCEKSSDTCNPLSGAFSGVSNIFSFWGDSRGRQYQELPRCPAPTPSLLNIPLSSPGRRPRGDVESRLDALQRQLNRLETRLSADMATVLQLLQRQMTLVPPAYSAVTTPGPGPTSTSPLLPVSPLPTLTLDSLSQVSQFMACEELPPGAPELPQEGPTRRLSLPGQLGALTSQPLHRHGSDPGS

With `Cc1cc(/C=C/C#N)cc(C)c1-c1cccc2c(N)nc(Nc3ncc(C#N)cn3)cc12` [Compound 1, (E)-2-((1-Amino-5-(4-(2-cyanovinyl)-2,6-dimethylphenyl)isoquinolin-3-yl)amino)pyrimidine-5-carbonitrile] the EC50 [1] was 51.6 nM, the “FC against mutant Y181C” value [1] was 11.5 and the EC50 [2] was 6.4 nM. The “FC against mutant K103N” value [2] was 1.4, the EC50 (HIV-1 HBX2 (wild type); [3]) was 6.4 nM and the EC50 (HIV-1 HBX2 (wild type); [4]) was 4.5 nM.

For `Cc1cc(/C=C/C#N)cc(C)c1-c1cccc2c(N)nc(Nc3cnc(C#N)cn3)cc12` [Compound 2, (E)-5-((1-Amino-5-(4-(2-cyanovinyl)-2,6-dimethylphenyl)isoquinolin-3-yl)amino)pyrazine-2-carbonitrile], the EC50 [1] was 109 nM, the “FC against mutant Y181C” value [1] was 5.4 and the EC50 [2] was 29.7 nM. For the same compound, the “FC against mutant K103N” value [2] was 1.5, the EC50 (HIV-1 HBX2 (wild type); [3]) was 14.4 nM and the EC50 (HIV-1 HBX2 (wild type); [4]) was 20.2 nM.

For `Cc1cc(/C=C/C#N)cc(C)c1-c1cccc2c(N)nc(Nc3ccc(C#N)nn3)cc12` [Compound 3, (E)-6-((1-Amino-5-(4-(2-cyanovinyl)-2,6-dimethylphenyl)isoquinolin-3-yl)amino)pyridazine-3-carbonitrile], the EC50 [1] was 174 nM, the “FC against mutant Y181C” value [1] was 7.7 and the EC50 [2] was 36.4 nM. The “FC against mutant K103N” value [2] was 1.6, the EC50 (HIV-1 HBX2 (wild type); [3]) was 17 nM and the EC50 (HIV-1 HBX2 (wild type); [4]) was 22.7 nM.

With `Cc1cc(/C=C/C#N)cc(C)c1-c1cccc2c(N)nc(Nc3ccc(C#N)cn3)cc12` [Compound 4, (E)-6-((1-Amino-5-(4-(2-cyanovinyl)-2,6-dimethylphenyl)isoquinolin-3-yl)amino)nicotinonitrile] the EC50 [1] was 12 nM, the “FC against mutant Y181C” value [1] was 3.4 and the hERG (hERG channels) was 3 µM. For the same compound, the EC50 [2] was 3.7 nM, the “FC against mutant K103N” value [2] was 1.0 and the EC50 (HIV-1 HBX2 (wild type); [3]) was 2.8 nM. For the same compound, the EC50 (HIV-1 HBX2 (wild type); [4]) was 3.6 nM.

`Cc1cc(/C=C/C#N)cc(C)c1-c1cccc2cnc(Nc3ccc(C#N)cn3)cc12` [Compound 5, (E)-6-((5-(4-(2-Cyanovinyl)-2,6-dimethylphenyl)isoquinolin-3-yl)amino)nicotinonitrile] was tested, and the EC50 [1] was 12 nM, the “FC against mutant Y181C” value [1] was 2.5 and the EC50 [2] was 4.7 nM. The “FC against mutant K103N” value [2] was 1.0, the EC50 (HIV-1 HBX2 (wild type); [3]) was 4.2 nM and the EC50 (HIV-1 HBX2 (wild type); [4]) was 4.7 nM.

In the case of `Cc1cc(/C=C/C#N)cc(C)c1-c1cccc2cnc(Nc3ccc(C#N)cc3)cc12` [Compound 6, (E)-4-((5-(4-(2-Cyanovinyl)-2,6-dimethylphenyl)isoquinolin-3-yl)amino)benzonitrile], the EC50 (HIV-1 HBX2 (wild type); [3]) is reported as 12.9 nM.

With `O=C1Nc2ccc(Cl)cc2[C@@](C#CC2CC2)(C(F)(F)F)O1` [Efavirenz, efavirenz, reference compound] the EC50 [1] was 3.8 nM, the “FC against mutant Y181C” value [1] was 2.3 and the EC50 [2] was 46.4 nM. For the same compound, the “FC against mutant K103N” value [2] was 28.9, the EC50 (HIV-1 HBX2 (wild type); [3]) was 1.3 nM and the EC50 (HIV-1 HBX2 (wild type); [4]) was 1.6 nM.

Compound `Cc1ccnc2c1NC(=O)c1cccnc1N2C1CC1` [Nevirapine, nevirapine, reference compound] has an EC50 (HIV-1 HBX2 (wild type); [3]) of 65 nM.

In the case of `Cc1cc(/C=C/C#N)cc(C)c1Nc1ccnc(Nc2ccc(C#N)cc2)n1` [Rilpivirine, rilpivirine, reference compound], the EC50 [1] is reported as 3.8 nM, the “FC against mutant Y181C” value [1] is reported as 3.1 and the hERG (hERG channels) is reported as 0.5 µM. The EC50 [2] was 1.5 nM, the “FC against mutant K103N” value [2] was 1.2 and the EC50 (HIV-1 HBX2 (wild type); [3]) was 0.9 nM. The EC50 (HIV-1 HBX2 (wild type); [4]) was 1.3 nM.
